Common to all, as to type: ADME
In one data set the target is Cytochrome P450 3A5 (Homo sapiens, UniProt P20815). Kind of data set: (§1) Mechanism based inhibition of human cytochrome P450 3A5 measured by testosterone hydroxylation.
The next data set concerns the target CYP3A5 (Homo sapiens, UniProt P20815). Described as §1. The conditions noted are these: human, probe testosterone (hydroxylation).
The target of data set [1] is T1, Cytochrome P450 3A4 (Homo sapiens, UniProt P08684). As to the kind of experiment: (§2) Mechanism based inhibition of human cytochrome P450 3A4 measured by testosterone hydroxylation.
T1 sequence (P08684 whole entry): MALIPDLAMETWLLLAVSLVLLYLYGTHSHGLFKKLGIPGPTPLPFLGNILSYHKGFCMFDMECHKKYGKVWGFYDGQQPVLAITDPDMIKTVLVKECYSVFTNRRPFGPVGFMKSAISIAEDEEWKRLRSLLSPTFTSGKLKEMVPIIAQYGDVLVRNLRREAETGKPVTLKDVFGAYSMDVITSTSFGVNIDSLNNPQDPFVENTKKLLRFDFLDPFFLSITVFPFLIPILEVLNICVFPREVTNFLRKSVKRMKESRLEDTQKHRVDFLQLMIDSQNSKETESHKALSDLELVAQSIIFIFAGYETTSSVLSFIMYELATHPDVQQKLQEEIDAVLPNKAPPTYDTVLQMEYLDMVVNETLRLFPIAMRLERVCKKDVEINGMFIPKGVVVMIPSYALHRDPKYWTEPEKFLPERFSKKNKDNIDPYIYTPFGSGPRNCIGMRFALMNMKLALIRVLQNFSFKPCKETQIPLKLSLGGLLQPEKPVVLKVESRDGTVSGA
Another data set addresses CYP3A4 (Homo sapiens, UniProt P08684). The description is as §2. The conditions noted are these: human, probe testosterone (hydroxylation).
The target in data set [2] is T1, Cytochrome P450 3A4. As to the kind of experiment: Mechanism based inhibition of human cytochrome P450 3A4 measured by transformation of triazolam into its alpha-hydroxy and 4-hydroxy metabolites.
A further data set addresses CYP2D6 (Homo sapiens, UniProt P10635). Kind of data set: (§3) Mechanism based inhibition of human cytochrome P450 2D6 measured by dextromethorphan O-demethylation. To be noted: human, probe dextromethorphan.
The target of data set [3] is T2, Cytochrome P450 2D6 (Homo sapiens, UniProt P10635). The description is as §3.
T2 sequence (P10635 whole entry): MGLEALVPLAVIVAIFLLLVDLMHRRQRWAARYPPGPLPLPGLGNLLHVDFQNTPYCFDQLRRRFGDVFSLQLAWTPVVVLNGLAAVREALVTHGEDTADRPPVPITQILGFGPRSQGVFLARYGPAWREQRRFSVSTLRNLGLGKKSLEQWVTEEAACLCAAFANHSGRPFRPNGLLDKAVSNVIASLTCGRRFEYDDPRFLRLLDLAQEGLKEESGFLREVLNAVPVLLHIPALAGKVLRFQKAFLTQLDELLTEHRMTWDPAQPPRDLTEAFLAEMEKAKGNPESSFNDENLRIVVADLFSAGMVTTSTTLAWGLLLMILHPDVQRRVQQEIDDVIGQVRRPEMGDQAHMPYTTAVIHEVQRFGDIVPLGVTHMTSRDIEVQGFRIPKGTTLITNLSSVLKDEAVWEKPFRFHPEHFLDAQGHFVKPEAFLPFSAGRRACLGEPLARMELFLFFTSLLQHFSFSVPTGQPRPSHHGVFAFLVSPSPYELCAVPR
Data set [4] deals with T2, Cytochrome P450 2D6. As to the kind of experiment: Mechanism based inhibition of human cytochrome P450 2D6, partition ratio.
For the next data set, the target named is T3, Cytochrome P450 2B1 (Rattus norvegicus, UniProt P00176).
T3 sequence (P00176 whole entry): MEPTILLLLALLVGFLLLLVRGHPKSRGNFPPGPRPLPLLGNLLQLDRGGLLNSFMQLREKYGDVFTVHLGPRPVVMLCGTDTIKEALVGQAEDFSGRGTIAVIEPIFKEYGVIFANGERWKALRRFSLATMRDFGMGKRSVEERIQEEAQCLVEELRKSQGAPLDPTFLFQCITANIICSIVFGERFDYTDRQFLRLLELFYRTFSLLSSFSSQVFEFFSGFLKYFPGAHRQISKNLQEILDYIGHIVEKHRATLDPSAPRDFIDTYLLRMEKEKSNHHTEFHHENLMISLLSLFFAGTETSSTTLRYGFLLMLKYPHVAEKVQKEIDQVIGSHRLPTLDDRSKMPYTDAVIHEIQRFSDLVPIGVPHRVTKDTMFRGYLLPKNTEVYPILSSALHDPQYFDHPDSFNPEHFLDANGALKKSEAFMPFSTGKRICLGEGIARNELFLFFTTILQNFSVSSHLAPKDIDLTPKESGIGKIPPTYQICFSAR
Kind of data set: Mechanism based inhibition of rat cytochrome P450 2B1 measured by 7-ethoxyresorufin O-deethylation (EROD).

Data set [5] addresses T1, Cytochrome P450 3A4. As to the kind of experiment: Mechanism based inhibition of human cytochrome P450 3A4 measured by midazolam hydroxylase activity.
In data set [6] the target is T4, Cytochrome P450 2C9 (Homo sapiens, UniProt P11712). Kind of data set: (§4) Mechanism based inhibition of human cytochrome P450 2C9.
T4 sequence (P11712 whole entry): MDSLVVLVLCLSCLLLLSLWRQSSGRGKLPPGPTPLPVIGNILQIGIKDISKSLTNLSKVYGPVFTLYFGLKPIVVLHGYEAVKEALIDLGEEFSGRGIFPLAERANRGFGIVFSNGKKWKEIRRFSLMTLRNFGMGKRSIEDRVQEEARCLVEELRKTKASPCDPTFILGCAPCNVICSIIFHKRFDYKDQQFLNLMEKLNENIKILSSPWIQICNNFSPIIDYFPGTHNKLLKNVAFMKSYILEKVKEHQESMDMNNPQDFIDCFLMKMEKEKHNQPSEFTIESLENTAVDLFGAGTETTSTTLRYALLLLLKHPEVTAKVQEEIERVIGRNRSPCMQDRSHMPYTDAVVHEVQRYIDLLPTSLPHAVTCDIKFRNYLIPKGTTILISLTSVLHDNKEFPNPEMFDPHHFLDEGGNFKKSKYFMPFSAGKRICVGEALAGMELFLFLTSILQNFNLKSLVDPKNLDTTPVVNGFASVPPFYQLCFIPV
The next data set concerns the target CYP2C9 (Homo sapiens, UniProt P11712). Described as §4. To be noted: human.
Data set [7] concerns the target T4, Cytochrome P450 2C9. As to the kind of experiment: Mechanism based inhibition of human cytochrome P450 2C9, partition ratio.
The next data set deals with T5, Cytochrome P450 2B6 (Homo sapiens, UniProt P20813).
T5 sequence (P20813 whole entry): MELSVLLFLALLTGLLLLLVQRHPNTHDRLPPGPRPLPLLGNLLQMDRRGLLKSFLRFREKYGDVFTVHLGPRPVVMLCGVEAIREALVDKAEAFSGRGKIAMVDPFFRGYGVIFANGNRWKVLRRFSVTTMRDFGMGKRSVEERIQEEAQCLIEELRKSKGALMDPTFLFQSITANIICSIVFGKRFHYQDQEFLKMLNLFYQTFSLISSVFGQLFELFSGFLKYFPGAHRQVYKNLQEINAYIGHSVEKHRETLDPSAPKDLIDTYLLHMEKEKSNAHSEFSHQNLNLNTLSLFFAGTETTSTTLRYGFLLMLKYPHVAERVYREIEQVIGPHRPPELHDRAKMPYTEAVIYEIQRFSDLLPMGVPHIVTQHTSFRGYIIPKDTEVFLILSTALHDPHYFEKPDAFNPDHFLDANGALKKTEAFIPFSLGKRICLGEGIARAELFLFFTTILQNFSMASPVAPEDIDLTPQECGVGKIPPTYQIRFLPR
Kind of data set: Mechanism based inhibition of human cytochrome P450 2B6, partition ratio (value refers to P450 expressed in baculovirus infected insect cells).

In another data set the target is T6, Cytochrome P450 2A6 (Homo sapiens, UniProt P11509).
T6 sequence (P11509 whole entry): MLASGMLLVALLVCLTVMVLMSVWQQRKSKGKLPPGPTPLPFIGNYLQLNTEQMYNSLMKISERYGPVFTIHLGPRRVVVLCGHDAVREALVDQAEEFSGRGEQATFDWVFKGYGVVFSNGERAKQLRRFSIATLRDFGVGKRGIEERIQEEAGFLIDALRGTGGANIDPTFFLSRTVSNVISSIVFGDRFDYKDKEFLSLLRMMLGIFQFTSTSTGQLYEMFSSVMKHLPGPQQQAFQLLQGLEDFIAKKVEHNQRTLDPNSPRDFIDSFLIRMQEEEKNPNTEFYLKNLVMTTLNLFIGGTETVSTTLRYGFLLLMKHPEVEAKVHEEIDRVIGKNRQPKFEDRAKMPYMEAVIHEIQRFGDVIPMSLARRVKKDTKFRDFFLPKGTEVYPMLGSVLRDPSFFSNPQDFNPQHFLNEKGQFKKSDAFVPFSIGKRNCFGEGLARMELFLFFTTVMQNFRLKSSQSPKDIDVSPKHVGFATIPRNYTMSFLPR
As to the kind of experiment: (§5) Mechanism based inhibition of human cytochrome P450 2A6 measured by coumarin 7-hydroxylation.

A further data set concerns the target T7, CYP2A6 (Homo sapiens, UniProt P11509).
T7 sequence (P11509 whole entry): T6 sequence (P11509 whole entry)
The data set is described as §5. To be noted: human, probe coumarin (7-hydroxylation).

This is an account of results in ChEMBL document CHEMBL1743341, “Cytochrome p450 enzymes mechanism based inhibitors: common sub-structures and reactivity” (Curr Drug Metab, 2005).

Each structure is given as a SMILES string. pKi: −log10 of the molar value.

As a reminder, the pKi is −log10 of the Ki, conventionally taken in molar units. Read a low pKi as a large Ki. In general, kinact refers to the maximal first-order rate at which the target is inactivated.

Chain of CYP3A4 (P08684 whole entry): as the sequence (P08684 whole entry) above
Chain of CYP2C9 (P11712 whole entry): as the sequence (P11712 whole entry) above
Chain of CYP2D6 (P10635 whole entry): as the sequence (P10635 whole entry) above
Chain of Cytochrome P450 3A5 (P20815 whole entry): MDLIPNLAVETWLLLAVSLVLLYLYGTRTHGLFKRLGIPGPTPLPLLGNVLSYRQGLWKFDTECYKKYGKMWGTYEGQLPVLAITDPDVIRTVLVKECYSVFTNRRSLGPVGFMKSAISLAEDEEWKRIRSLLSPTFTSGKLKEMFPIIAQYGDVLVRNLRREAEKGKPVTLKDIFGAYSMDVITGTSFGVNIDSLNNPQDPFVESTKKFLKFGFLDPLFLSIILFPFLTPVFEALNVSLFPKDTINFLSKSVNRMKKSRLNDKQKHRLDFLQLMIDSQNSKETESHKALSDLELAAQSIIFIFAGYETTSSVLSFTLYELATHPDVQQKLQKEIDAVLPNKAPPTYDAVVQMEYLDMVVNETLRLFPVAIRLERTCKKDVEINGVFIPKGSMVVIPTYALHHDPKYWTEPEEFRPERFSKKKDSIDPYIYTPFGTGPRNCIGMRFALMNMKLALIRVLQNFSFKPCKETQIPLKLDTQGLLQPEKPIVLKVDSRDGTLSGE
Chain of CYP3A5 (P20815 whole entry): as above

As to `CC(C)CN(C[C@@H](O)[C@H](Cc1ccccc1)NC(=O)O[C@H]1CCOC1)S(=O)(=O)c1ccc(N)cc1`, the pKi at Cytochrome P450 3A5 is 6.70; at Cytochrome P450 3A4 [1], 6.59. Also, the kinact is 0.00583 s⁻¹ at CYP3A5 and 0.0122 s⁻¹ on CYP3A4. The mechanism based inhibition result at Cytochrome P450 3A4 [2] is reported as “Cytochrome P450 mechanistic inhibitor: PMID 10952482”.

For `CCc1nc(C)c(CN2CCN(c3cc(C(F)(F)F)ccn3)CC2)[nH]1`, the kinact at CYP2D6 is 0.0015 s⁻¹. The pKi on Cytochrome P450 2D6 [3] is 5.26. Besides, at Cytochrome P450 2D6 [4], the Partition ratio is recorded as 99.

`C#CCCCc1ccccc1`: at Cytochrome P450 2B1, the mechanism based inhibition entry is “Cytochrome P450 mechanistic inhibitor: PMID 9760279”.

As for `CNCCN1C(=O)[C@H](OC(C)=O)[C@H](c2ccc(OC)cc2)Sc2ccccc21`, on Cytochrome P450 3A4 [5], the mechanism based inhibition result is “Cytochrome P450 mechanistic inhibitor: PMID 10454485”.

As for `CC(C(=O)O)c1ccc(C(=O)c2cccs2)cc1` (racemic) [SUPROFEN], the pKi on Cytochrome P450 2C9 [6] is 5.43. In addition, the kinact on CYP2C9 is 0.00152 s⁻¹. Also, on Cytochrome P450 2C9 [7], the Partition ratio was determined as 101.

As for `COc1c2ccoc2cc2oc(=O)ccc12` [BERGAPTEN], the Partition ratio on Cytochrome P450 2B6 is given as 57.4. This molecule showed a negative-log Ki (pKi) at Cytochrome P450 2A6 of 4.92. Further, the kinact on CYP2A6 was 0.006 s⁻¹.
